{"source": "paper PMC6934184", "about": "“Selective DNA-PKcs inhibition extends the therapeutic index of localized radiotherapy and chemotherapy” (The Journal of Clinical Investigation, 2019)", "key": {"normal lung tissue": {"system": "normal lung tissue", "assay": "γH2AX-positive cells in normal lung after thoracic irradiation", "format": "in vivo, mouse", "conditions": "24 hours after 10 Gy; NU5455 30 mg/kg oral", "protocol": "combined with 10 Gy thorax irradiation ( n = 6 - 7/group). For whole-thorax irradiation, anaesthetized mice were placed in the supine position in a customized rig. The whole thorax was exposed to X-ray radiation generated by the Gulmay Medical RS320 irradiation system (2.034 Gy/minute). The rest of the body was protected by lead shields. Three mice fr om each treatment group were humanely killed 24 h ours after irradiation, and their tumors processed to permit immunohistochemical analysis .\nTumor growth in the remaining mice was monitored by bioluminescent imaging on days 0, 4, 8 and 15 post-treatment. Mice were injected with luciferin (150 mg/kg i.p., Santa Cruz Biotechnology) and bioluminescence images were acquired using the IVIS Spectrum (PerkinElmer) at 5 minute intervals until maximum light was collected. […] Data were analyzed using LivingImage software (PerkinElmer). […]\nTissues were fixed in 4% paraformaldehyde (PFA) and paraffin -embedded. […] One tissue section from each of 3 mice per group was examined, and the whole section (excluding necrotic areas) analyzed using ImageScope analysis software (Aperio Technologies). γH2AX and 53BP1 foci were manually counted in 200 nuclei from each tumor sample. The percentage of γH2AX and 53BP1 positive nuclei in lung epithelial cells was quantified manually in normal lung samples across 5 randomly-chosen fields of view per […]"}, "HCT116 parental cells": {"system": "HCT116 parental cells", "assay": "caspase activity after irradiation", "format": "cell-based, Human", "conditions": "1 µM, 1 hour prior to 2 Gy; 72 hours", "protocol": "(§1) Supplemental Figure 19. […] Fold […]\n(§2) caspase activity in HCT116 parental and p53 null (-/-) cells 72 hours following pre-treatment with NU5455 (1 µM) or DMSO for 1 hour prior to irradiation (0 or 2 Gy). Fold caspase activity was normalized to cell density determined by SRB staining. Data represent the mean ± SEM from three independent experiments. NS = not significant, **** P < 0.0001 (2-way ANOVA)."}, "[1]": {"system": "HCT116 p53 null (-/-) cells", "assay": "caspase activity after irradiation", "format": "cell-based, Human", "conditions": "1 µM, 1 hour prior to 2 Gy; 72 hours", "protocol": "as §1, §2"}, "ATM": {"target": "ATM (Homo sapiens, UniProt Q13315)", "sequence (Q13315 whole entry)": "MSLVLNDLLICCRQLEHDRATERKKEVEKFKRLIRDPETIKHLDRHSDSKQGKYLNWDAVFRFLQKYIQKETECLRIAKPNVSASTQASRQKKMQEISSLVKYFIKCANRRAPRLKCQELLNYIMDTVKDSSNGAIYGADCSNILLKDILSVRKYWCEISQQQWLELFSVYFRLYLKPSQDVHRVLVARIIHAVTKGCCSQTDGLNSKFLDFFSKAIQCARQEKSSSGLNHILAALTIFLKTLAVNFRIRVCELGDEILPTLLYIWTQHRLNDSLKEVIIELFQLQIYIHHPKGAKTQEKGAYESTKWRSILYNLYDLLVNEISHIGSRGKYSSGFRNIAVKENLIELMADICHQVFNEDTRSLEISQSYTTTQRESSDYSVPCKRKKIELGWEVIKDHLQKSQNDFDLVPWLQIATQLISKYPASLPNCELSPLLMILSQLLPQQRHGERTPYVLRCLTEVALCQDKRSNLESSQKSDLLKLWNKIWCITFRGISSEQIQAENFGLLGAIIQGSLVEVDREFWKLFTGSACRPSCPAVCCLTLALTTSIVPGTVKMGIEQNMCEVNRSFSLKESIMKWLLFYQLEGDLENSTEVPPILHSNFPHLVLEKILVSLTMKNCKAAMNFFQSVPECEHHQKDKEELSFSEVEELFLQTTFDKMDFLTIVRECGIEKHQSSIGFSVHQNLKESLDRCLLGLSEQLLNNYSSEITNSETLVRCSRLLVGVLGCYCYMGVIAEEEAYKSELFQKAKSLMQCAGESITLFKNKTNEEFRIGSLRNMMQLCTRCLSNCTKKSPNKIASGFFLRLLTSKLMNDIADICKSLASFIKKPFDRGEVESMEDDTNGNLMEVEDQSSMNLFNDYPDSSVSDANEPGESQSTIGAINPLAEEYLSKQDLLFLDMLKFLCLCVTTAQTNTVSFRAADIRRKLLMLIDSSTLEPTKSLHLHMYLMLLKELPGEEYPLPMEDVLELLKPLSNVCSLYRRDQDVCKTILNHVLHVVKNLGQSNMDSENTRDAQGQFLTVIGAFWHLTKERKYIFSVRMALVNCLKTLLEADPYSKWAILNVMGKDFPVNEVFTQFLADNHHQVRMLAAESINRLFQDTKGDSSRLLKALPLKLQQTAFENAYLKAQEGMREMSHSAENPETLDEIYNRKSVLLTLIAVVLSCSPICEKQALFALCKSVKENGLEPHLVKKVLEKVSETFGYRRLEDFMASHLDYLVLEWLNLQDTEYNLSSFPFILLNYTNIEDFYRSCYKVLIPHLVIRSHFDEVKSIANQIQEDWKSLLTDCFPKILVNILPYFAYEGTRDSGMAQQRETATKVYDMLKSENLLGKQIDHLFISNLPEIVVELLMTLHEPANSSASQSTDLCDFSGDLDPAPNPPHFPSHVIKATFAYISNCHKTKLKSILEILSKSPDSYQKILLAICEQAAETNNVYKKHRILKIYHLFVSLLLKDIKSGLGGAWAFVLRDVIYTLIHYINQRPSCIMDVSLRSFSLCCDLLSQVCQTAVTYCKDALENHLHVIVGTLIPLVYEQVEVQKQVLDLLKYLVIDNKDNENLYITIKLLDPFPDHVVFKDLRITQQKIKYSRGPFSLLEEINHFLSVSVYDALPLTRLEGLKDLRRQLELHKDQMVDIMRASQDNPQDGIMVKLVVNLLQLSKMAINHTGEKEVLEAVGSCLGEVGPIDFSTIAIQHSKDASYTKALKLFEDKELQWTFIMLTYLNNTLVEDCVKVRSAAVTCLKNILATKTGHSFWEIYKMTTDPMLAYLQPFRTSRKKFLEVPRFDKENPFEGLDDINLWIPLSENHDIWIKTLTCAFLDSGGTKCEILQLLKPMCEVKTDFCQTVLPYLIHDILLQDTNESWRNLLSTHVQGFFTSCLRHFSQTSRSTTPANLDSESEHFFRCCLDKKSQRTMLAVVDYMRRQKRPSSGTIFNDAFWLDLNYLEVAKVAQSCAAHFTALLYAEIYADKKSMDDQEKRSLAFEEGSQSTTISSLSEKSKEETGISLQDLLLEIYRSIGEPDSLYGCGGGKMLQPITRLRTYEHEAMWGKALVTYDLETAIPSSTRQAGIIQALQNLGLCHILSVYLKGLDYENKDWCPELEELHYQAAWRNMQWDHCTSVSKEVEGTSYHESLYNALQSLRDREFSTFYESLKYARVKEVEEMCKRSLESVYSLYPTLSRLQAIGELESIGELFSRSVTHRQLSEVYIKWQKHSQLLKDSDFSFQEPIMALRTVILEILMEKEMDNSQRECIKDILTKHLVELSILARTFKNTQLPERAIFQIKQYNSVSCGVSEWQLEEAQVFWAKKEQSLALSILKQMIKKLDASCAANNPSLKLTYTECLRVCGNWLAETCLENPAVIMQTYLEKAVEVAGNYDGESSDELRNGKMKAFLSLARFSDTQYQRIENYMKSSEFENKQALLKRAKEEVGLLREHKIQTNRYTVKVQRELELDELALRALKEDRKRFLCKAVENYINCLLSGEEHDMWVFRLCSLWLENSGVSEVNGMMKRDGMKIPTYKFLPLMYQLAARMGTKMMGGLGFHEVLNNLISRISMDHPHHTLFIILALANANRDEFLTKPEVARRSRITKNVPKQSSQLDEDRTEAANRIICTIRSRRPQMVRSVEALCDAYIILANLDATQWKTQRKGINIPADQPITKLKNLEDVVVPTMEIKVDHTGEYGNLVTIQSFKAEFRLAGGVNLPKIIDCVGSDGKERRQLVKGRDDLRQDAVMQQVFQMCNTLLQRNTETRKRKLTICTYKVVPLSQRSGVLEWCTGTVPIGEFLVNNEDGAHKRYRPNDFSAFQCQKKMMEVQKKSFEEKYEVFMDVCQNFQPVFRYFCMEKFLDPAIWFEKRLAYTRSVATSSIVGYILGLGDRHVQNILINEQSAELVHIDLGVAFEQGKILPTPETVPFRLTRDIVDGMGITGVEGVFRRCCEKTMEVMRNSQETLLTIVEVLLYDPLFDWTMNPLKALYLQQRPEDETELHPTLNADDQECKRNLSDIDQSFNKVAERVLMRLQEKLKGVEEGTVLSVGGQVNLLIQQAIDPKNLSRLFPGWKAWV", "assay": "SelectScreen Profiling IC50", "format": "biochemical", "protocol": "(§3) The in vitro kinase selectivity of NU5455 was determined using the SelectScreen Broad Assay Panel (Thermo Fisher Scientific) involving activity and binding assays (Supplemental Table 1). […] Class IA PI3Ks were measured using the p85α subunit.\n(§4) PI3K Kinase NU5455 IC (nM) Fold selectivity\n(§5) Supplemental Table 2. NU5455 potency and selectivity across the PI3K kinase family.\n(§6) µM NU5455 for DNA-PK versus other PIKK and PI3K family members was assessed by SelectScreen Profiling (Life Technologies). The\n(§7) ATP concentration was the Kmapp except for * where the ATP concentration was 10 μM (mean ± SEM, n=4-7)."}, "PI3K-C2α": {"target": "PI3K-C2α (Homo sapiens, UniProt O00443)", "assay": "SelectScreen Profiling IC50", "format": "biochemical", "protocol": "as §3, §4, §5, §6, §7"}, "Vps34": {"target": "Vps34 (Homo sapiens, UniProt Q8NEB9)", "assay": "SelectScreen Profiling IC50", "format": "biochemical", "protocol": "as §3, §4, §5, §6, §7"}, "PI3K-C2β": {"target": "PI3K-C2β (Homo sapiens, UniProt O00750)", "assay": "SelectScreen Profiling IC50", "format": "biochemical", "conditions": "ATP 10 μM", "protocol": "as §3, §4, §5, §6, §7"}, "p110α": {"target": "p110α (Homo sapiens, UniProt P42336)", "assay": "SelectScreen Profiling IC50", "format": "biochemical", "protocol": "as §3, §4, §5, §6, §7"}, "mTOR": {"target": "mTOR (Homo sapiens, UniProt P42345)", "assay": "SelectScreen Profiling IC50", "format": "biochemical", "protocol": "as §3, §4, §5, §6, §7"}, "p110δ": {"target": "p110δ (Homo sapiens, UniProt O00329)", "assay": "SelectScreen Profiling IC50", "format": "biochemical", "protocol": "as §3, §4, §5, §6, §7"}, "DNA-PK": {"target": "DNA-PK (Homo sapiens, UniProt P78527)", "assay": "SelectScreen Profiling IC50", "format": "biochemical", "conditions": "cell-free; ATP Km app; mean ± SEM, n=4-7; read-out: NU5455 IC50", "protocol": "as §3, §4, §5, §6, §7"}, "p110γ": {"target": "p110γ (Homo sapiens, UniProt P48736)", "assay": "SelectScreen Profiling IC50", "format": "biochemical", "protocol": "as §3, §4, §5, §6, §7"}, "ATR": {"target": "ATR (Homo sapiens, UniProt Q13535)", "assay": "SelectScreen Profiling IC50", "format": "biochemical", "protocol": "as §3, §4, §5, §6, §7"}, "p110β": {"target": "p110β (Homo sapiens, UniProt P42338)", "sequence (P42338 whole entry)": "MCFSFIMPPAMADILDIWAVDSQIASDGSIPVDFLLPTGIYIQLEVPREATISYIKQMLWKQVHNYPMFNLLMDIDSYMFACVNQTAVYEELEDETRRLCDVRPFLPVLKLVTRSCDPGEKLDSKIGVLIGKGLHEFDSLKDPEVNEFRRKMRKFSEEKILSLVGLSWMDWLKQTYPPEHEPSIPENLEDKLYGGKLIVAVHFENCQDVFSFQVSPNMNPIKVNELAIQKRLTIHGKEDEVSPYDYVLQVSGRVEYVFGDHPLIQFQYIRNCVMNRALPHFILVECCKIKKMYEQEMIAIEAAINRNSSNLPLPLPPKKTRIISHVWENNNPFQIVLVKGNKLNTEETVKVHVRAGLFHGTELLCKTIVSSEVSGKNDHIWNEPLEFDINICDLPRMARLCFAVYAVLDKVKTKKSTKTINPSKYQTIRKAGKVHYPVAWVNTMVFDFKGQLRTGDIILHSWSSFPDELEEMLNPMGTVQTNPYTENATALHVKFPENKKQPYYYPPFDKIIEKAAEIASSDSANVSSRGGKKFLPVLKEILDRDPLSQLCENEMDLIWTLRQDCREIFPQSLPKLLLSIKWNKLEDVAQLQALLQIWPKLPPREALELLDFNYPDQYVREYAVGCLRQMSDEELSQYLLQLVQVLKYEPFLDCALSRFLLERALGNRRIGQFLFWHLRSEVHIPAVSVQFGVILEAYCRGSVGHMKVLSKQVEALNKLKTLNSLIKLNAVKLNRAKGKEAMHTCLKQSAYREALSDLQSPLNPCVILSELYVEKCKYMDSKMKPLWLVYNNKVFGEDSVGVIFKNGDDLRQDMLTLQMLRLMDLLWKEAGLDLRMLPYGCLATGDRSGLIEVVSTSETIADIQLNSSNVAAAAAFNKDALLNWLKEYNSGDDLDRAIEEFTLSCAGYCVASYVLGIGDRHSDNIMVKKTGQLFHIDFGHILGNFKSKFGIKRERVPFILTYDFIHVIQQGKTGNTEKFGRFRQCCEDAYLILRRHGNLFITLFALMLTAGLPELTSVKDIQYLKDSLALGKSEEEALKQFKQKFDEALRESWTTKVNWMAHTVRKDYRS", "sequence (P27986 whole entry partner)": "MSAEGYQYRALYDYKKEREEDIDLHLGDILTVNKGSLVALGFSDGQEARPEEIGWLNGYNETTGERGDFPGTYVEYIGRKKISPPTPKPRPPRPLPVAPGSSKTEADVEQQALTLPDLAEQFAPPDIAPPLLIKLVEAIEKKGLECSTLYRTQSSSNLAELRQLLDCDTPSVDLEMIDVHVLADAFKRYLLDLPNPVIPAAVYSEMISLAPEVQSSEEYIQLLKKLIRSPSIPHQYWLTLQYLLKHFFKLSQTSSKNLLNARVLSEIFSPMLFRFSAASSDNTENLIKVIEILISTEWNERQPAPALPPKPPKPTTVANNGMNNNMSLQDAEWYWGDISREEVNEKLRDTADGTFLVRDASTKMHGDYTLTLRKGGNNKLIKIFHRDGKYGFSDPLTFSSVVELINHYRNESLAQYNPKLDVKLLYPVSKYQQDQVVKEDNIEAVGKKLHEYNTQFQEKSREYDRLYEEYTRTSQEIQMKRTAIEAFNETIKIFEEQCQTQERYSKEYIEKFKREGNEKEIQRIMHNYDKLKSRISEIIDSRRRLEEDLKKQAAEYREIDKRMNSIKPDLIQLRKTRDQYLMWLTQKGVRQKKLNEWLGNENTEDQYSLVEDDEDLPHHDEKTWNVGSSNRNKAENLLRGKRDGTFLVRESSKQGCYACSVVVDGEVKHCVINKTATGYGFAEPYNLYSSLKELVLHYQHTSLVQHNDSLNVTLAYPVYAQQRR", "assay": "SelectScreen Profiling IC50", "format": "biochemical", "protocol": "as §3, §4, §5, §6, §7"}, "PI3K-C2γ": {"target": "PI3K-C2γ (Homo sapiens, UniProt O75747)", "assay": "SelectScreen Profiling IC50", "format": "biochemical", "protocol": "as §3, §4, §5, §6, §7"}, "[2]": {"conditions": "cell-free, ATP Km app, read-out: NU5455 IC50"}, "[3]": {"conditions": "cell-free, ATP Km app, mean ± SEM, read-out: NU5455 IC50"}, "[4]": {"conditions": "cell-free, ATP Km app, p85α subunit, mean ± SEM, read-out: NU5455 IC50"}}, "note": "“And” between values parts separate entries of the source, which are not always exact repeats. Identical values can stand only once."}
{"smiles": "CN(C(=O)CN1CCOCC1)c1ccc2sc3c(-c4cccc5c(=O)cc(N6CC7CCC(C6)O7)oc45)cccc3c2c1", "note": "[NU5455]", "values": [{"measurement": "number of γH2AX-positive cells in normal lung", "setting": "normal lung tissue", "result": "unaffected by NU5455 administration"}, {"measurement": "radiation-induced apoptosis (fold caspase activity)", "setting": "HCT116 parental cells", "result": "increases radiation-induced apoptosis"}, {"measurement": "radiation-induced apoptosis (fold caspase activity)", "setting": "[1]", "result": "increases radiation-induced apoptosis"}, {"measurement": "IC50", "setting": "ATM; [2]", "result": "> 10", "unit": "µM"}, {"measurement": "Fold selectivity for DNA-PK", "setting": "ATM; versus ATM", "result": "> 1220 fold and > 1200 fold"}, {"measurement": "IC50", "setting": "PI3K-C2α; [2]", "result": "> 10", "unit": "µM"}, {"measurement": "Fold selectivity for DNA-PK", "setting": "PI3K-C2α; versus PI3K-C2α", "result": "> 1220", "unit": "fold"}, {"measurement": "IC50", "setting": "Vps34; [3]", "result": "0.071 ± 0.019", "unit": "µM"}, {"measurement": "Fold selectivity for DNA-PK", "setting": "Vps34; versus Vps34", "result": 8.7, "unit": "fold"}, {"measurement": "IC50", "setting": "PI3K-C2β; cell-free, mean ± SEM, read-out: NU5455 IC50", "result": "1.96 ± 0.424", "unit": "µM"}, {"measurement": "Fold selectivity for DNA-PK", "setting": "PI3K-C2β; versus PI3K-C2β", "result": 239, "unit": "fold"}, {"measurement": "IC50", "setting": "p110α; [4]", "result": "1.87 ± 0.216", "unit": "µM"}, {"measurement": "Fold selectivity for DNA-PK", "setting": "p110α; versus p110α (PI3Kα)", "result": 228, "unit": "fold"}, {"measurement": "IC50", "setting": "mTOR; [3]", "result": "4.06 ± 1.12", "unit": "µM"}, {"measurement": "Fold selectivity for DNA-PK", "setting": "mTOR; versus mTOR", "result": 495, "unit": "fold"}, {"measurement": "IC50", "setting": "p110δ; [4]", "result": "0.276 ± 0.022", "unit": "µM"}, {"measurement": "Fold selectivity for DNA-PK", "setting": "p110δ; versus p110δ (PI3Kδ)", "result": 33.7, "unit": "fold"}, {"measurement": "IC50", "setting": "DNA-PK", "result": "0.0082 ± 0.002", "unit": "µM"}, {"measurement": "IC50", "setting": "p110γ; [2]", "result": "> 10", "unit": "µM"}, {"measurement": "Fold selectivity for DNA-PK", "setting": "p110γ; versus p110γ", "result": "> 1220", "unit": "fold"}, {"measurement": "IC50", "setting": "ATR; [2]", "result": "> 10", "unit": "µM"}, {"measurement": "Fold selectivity for DNA-PK", "setting": "ATR; versus ATR", "result": "> 1220 fold and > 1200 fold"}, {"measurement": "IC50", "setting": "p110β; [4]", "result": "9.32 ± 1.25", "unit": "µM"}, {"measurement": "Fold selectivity for DNA-PK", "setting": "p110β; versus p110β", "result": 1137, "unit": "fold"}, {"measurement": "IC50", "setting": "PI3K-C2γ; [2]", "result": "> 10", "unit": "µM"}, {"measurement": "Fold selectivity for DNA-PK", "setting": "PI3K-C2γ; versus PI3K-C2γ", "result": "> 1220", "unit": "fold"}]}
